Results from US20030082112A1, “Composition” (Unilever Home & Personal Care USA, Division of Conopco, Inc., priority 2001, published 2003).

Assay: Storage stability of the alkyl hydroxybenzoate in the alkaline chalk oral care formulation
Type: physicochemical
Conditions: 37° C. for two months; 1.0 w/w % in fine ground natural chalk formulation of the Example
Procedure: The following formulation is a composition according to the invention and is made by ordinary methods known to a skilled person.
This octyl parahydroxy benzoic acid in this formulation was stable at 37° C. for two months.

CCCCCCCCOC(=O)c1ccc(O)cc1 [octyl parahydroxy benzoic acid]
stability in the formulation: stable
